The subject of experiment [1] is CDK8 (TCF/LEF luciferase reporter in HCT116 cells). In words: Cell based TCF/LEF reporter assay (HCT116+TCF/LEF luciferase). Conditions: Homo sapiens, HCT-116, 24 h. The essentials:
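Luciferase readout was corrected for viability (CellTiter-Fluor) and scaled between DMSO high and 10 uM CCT251545 low controls, giving IC50 by nonlinear regression. Compounds, serially diluted, were incubated 24 h at 37 °C on HCT116 clones stably expressing a TCF/LEF-driven luciferase reporter.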

The test system of experiment [2] is CDK8 (phosphorylation of STAT1 at serine 727 in A549 cells). Description: Cell based Phospho-STAT1 assay (IFNγ-stimulated A549 cells, AlphaLISA). To be noted: Homo sapiens, A549, A549 cells, phospho-STAT1 after IFNγ stimulation. The essentials: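 A549 cells given serial compound dilutions for 1 h at 37 °C, then stimulated with IFNγ at 10 ng/mL final for 30 min. Lysate STAT1 Ser727 phosphorylation measured by AlphaLISA; % inhibition vs stimulated/unstimulated DMSO controls, IC50 by nonlinear regression.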
(In general: Alpha assays give light when donor and acceptor beads are brought close together.)

Take `COc1ccc2cc(-c3cnn4ccnc(C5=CCC(C#N)CC5)c34)ccc2n1` (stereo not drawn) [Compound P-0147, 4-(3-(2-methoxyquinolin-6-yl)pyrazolo[1,5-a]pyrazin-4-yl)cyclohex-3-ene-1-carbonitrile]: the 50% inhibitory concentration (IC50) in experiment [1] and in experiment [2] was 0.1 to 100 nM throughout.
As to `N#CC1CC=C(c2cccn3ncc(-c4ccc(OCC5CCCCO5)cc4)c23)CC1` (stereo not drawn) [Compound P-0182, 4-(3-(4-((tetrahydro-2H-pyran-2-yl)methoxy)phenyl)pyrazolo[1,5-a]pyridin-4-yl)cyclohex-3-ene-1-carbonitrile], the 50% inhibitory concentration (IC50) in experiment [1] and in experiment [2] was 0.1 to 100 nM throughout.
For the compound `CC(C)(O)Cn1cc(-c2ccc(-c3cnn4ccnc(C5=CCC(C#N)CC5)c34)cc2F)cn1` (stereo not drawn) [Compound P-0163, 4-(3-(3-fluoro-4-(1-(2-hydroxy-2-methylpropyl)-1H-pyrazol-4-yl)phenyl)pyrazolo[1,5-a]pyrazin-4-yl)cyclohex-3-ene-1-carbonitrile], the half-maximal inhibitory concentration (IC50) in experiment [1] and in experiment [2] was 0.1 to 100 nM in each case.
Consider `CC(C)(O)C#Cc1cccn2ncc(-c3ccc4cc(NS(C)(=O)=O)ccc4c3)c12` [Compound P-0216, N-(6-(4-(3-hydroxy-3-methylbut-1-yn-1-yl)pyrazolo[1,5-a]pyridin-3-yl)naphthalen-2-yl)methanesulfonamide], for which the values for the IC50 in experiment [1] and in experiment [2] were 100 to 1000 nM and 0.1 to 100 nM, respectively.
In the same order, the values of `COc1ccc(-c2cnn3ccnc(C4=CCC(C(N)=O)CC4)c23)cn1` (stereo not drawn) [Compound P-0155, 4-(3-(6-methoxypyridin-3-yl)pyrazolo[1,5-a]pyrazin-4-yl)cyclohex-3-ene-1-carboxamide] are 100 to 1000 nM and 100 to 1000 nM.
On the same counts, the results for `Cn1ncc2cc(-c3cnn4ccnc(C5=CCC(C(N)=O)CC5)c34)ccc21` (stereo not drawn) [Compound P-0136, 4-(3-(1-methyl-1H-indazol-5-yl)pyrazolo[1,5-a]pyrazin-4-yl)cyclohex-3-ene-1-carboxamide] are 0.1 to 100 nM and 0.1 to 100 nM.
In the same order, the values of `Cn1ncc2cc(-c3cnc4[nH]ccc4c3C3=CCC(C#N)CC3)ccc21` (stereo not drawn) [Compound P-0358, 4-(5-(1-methyl-1H-indazol-5-yl)-1H-pyrrolo[2,3-b]pyridin-4-yl)cyclohex-3-ene-1-carbonitrile] are 0.1 to 100 nM and 0.1 to 100 nM.
In the case of `Cc1ccc2cc(-c3cnn4ccnc(C#CC(C)(C)C(N)=O)c34)ccc2n1` [Compound P-0118, 2,2-dimethyl-4-(3-(2-methylquinolin-6-yl)pyrazolo[1,5-a]pyrazin-4-yl)but-3-ynamide], the IC50 in experiment [1] and in experiment [2] was 0.1 to 100 nM each time.
Take `N#CC1CC=C(c2cccn3ncc(-c4ccc5ncccc5c4)c23)CC1` (stereo not drawn) [Compound P-0127, 4-(3-(quinolin-6-yl)pyrazolo[1,5-a]pyridin-4-yl)cyclohex-3-ene-1-carbonitrile]: the IC50 in experiment [1] and in experiment [2] was 0.1 to 100 nM in each case.
With `Cc1ccc2cc(-c3cnc4[nH]ccc4c3C#CC(C)(C)C(N)=O)ccc2n1` [Compound P-0131, 2,2-dimethyl-4-(5-(2-methylquinolin-6-yl)-1H-pyrrolo[2,3-b]pyridin-4-yl)but-3-ynamide], the concentration for half-maximal inhibition (IC50) (usually the concentration at which inhibition is half-maximal) is 1000 to 10000 nM in experiment [1] and 100 to 1000 nM in experiment [2].
For the compound `Cc1nc2ccc(-c3cnn4ccnc(C5=CCC(C#N)CC5)c34)cc2s1` (stereo not drawn) [Compound P-0149, 4-(3-(2-methylbenzo[d]thiazol-6-yl)pyrazolo[1,5-a]pyrazin-4-yl)cyclohex-3-ene-1-carbonitrile], the IC50 in experiment [1] and in experiment [2] was 0.1 to 100 nM in each case.
Take `Cn1cc(-c2ccc(-c3cnn4ccnc(C#CC(C)(C)C(N)=O)c34)cc2)cn1` [Compound P-0003, 2,2-dimethyl-4-(3-(4-(1-methyl-1H-pyrazol-4-yl)phenyl)pyrazolo[1,5-a]pyrazin-4-yl)but-3-ynamide]: the IC50 in experiment [1] and in experiment [2] was 0.1 to 100 nM each time.

The record behind these values is patent publication US10703757B2, “Compounds and methods for CDK8 modulation and indications therefor” (Plexxikon Inc., priority 2016, dated 2020).
